In patent US20260109712A1, “RIFAMYCINS FOR NONTUBERCULOUS MYCOBACTERIA” (priority 2022, published 2026):
Values after ≈ are worked out from the molar mass of the structure shown. Like-named read-outs stand apart in the source and are kept apart here.

Experiments:
M. abscessus ATCC 19977 = assay: MIC assay in 96-well plate format, wild-type strain; assay type: cell-based, Mycobacterium abscessus
Procedure: MIC determination was carried out in 96-well plate format as previously described.^[13-14] 96-well plates were initially set up with 100 μL of 7H9 per well. For each compound, a ten-point two-fold dilution series starting at twice the desired highest concentration was dispensed onto the 96-well plates using a Tecan D300e Digital Dispenser, with the DMSO concentration normalized to 2%. M. abscessus culture grown to mid-log phase (OD600=0.4-0.6) was diluted to OD600=0.1 (1×10^7 CFU/mL). […] Untreated control wells are included on each plate that contain bacteria suspension and 1% DMSO. Plates were sealed with parafilm, stored in boxes with wet paper towels and incubated at 37° C. with shaking (110 RPM). Plates were incubated for 3 days. To determine growth, OD600 was measured using a Tecan Infinite M200 plate reader on Day 0 and Day 3. Two biological replicates were performed. Clarithromycin was included in each experiment as a positive control.
For each well on the 96-well plate, bacterial growth was calculated by subtracting the Day 0 OD600 value from the Day 3 OD600 value. […] For compound-containing wells, percentage growth was calculated by dividing their growth values by the average drug-free bacterial growth for the compound series and multiplying by 100. For each compound series, we plotted percentage growth versus compound concentration.

[1] = Plasma protein binding assay (rapid equilibrium dialysis); assay type: in vitro ADME; conditions: 4 h, 10000 ng/mL
Procedure: DMSO stocks were spiked into plasma to a concentration of 10,000 ng/mL. 200 μL of spiked plasma was pipetted into the sample chamber of the rapid equilibrium dialysis (RED) cartridge. 350 μL of PBS was added to the adjacent cartridge. The plate containing the RED was sealed and incubated at 37° C. on the thermomixer at 300 RPM for 4 h. After incubation, 50 μL aliquots of plasma were removed and added to 50 μL of blank plasma in a deep well plate (1:1). Similarly, 50 μL aliquots of PBS were removed and added to 50 μL of blank plasma. This created an identical matrix between buffer and non-buffer samples. Samples were processed and quantified as specified in the LC-MS/MS analytical method.

[2] = Mycobacterium abscessus ATCC 19977, Table 11, read-out: MIC
[3] = Mycobacteroides abscessus, ATCC19977, Table 14, carbamate analogs, read-out: WT Mab MIC

SMILES | MIC (M. abscessus ATCC 19977; [2]) | MIC (M. abscessus ATCC 19977; [3]) | ƒu [1]
COc1ccc(S(=O)(=O)NC(=O)O[C@H]2[C@H](C)[C@H](O)[C@H](C)[C@@H](O)[C@@H](C)/C=C/C=C(\C)C(=O)NC3=C4NC5(CCN(CC(C)C)CC5)N=C4c4c(c(O)c(C)c5c4C(=O)[C@@](C)(O/C=C/[C@H](OC)[C@H]2C)O5)C3=O)cc1 [UMN122] | 0.14 µM (≈ 0.143 µg/mL) | – | –
CO[C@H]1/C=C/O[C@@]2(C)Oc3c(C)c(O)c4c(c3C2=O)C2=NC3(CCN(CC(C)C)CC3)NC2=C(NC(=O)/C(C)=C/C=C/[C@H](C)[C@H](O)[C@@H](C)[C@@H](O)[C@@H](C)[C@H](OC(=O)Nc2nccc3ccccc23)[C@@H]1C)C4=O [UMN124] | 0.027 µM (≈ 0.0263 µg/mL) | – | –
CO[C@H]1/C=C/O[C@@]2(C)Oc3c(C)c(O)c4c(c3C2=O)C2=NC3(CCN(CC(C)C)CC3)NC2=C(NC(=O)/C(C)=C/C=C/[C@H](C)[C@H](O)[C@@H](C)[C@@H](O)[C@@H](C)[C@H](OC(=O)Nc2ccc3cnccc3n2)[C@@H]1C)C4=O [UMN127] | 0.03 µM (≈ 0.0293 µg/mL) | – | –
CO[C@H]1/C=C/O[C@@]2(C)Oc3c(C)c(O)c4c(c3C2=O)C2=NC3(CCN(CC(C)C)CC3)NC2=C(NC(=O)/C(C)=C/C=C/[C@H](C)[C@H](O)[C@@H](C)[C@@H](O)[C@@H](C)[C@H](OC(=O)Nc2cnn3ccccc23)[C@@H]1C)C4=O [UMN129] | 0.044 µM (≈ 0.0424 µg/mL) | – | –
CO[C@H]1/C=C/O[C@@]2(C)Oc3c(C)c(O)c4c(c3C2=O)C2=NC3(CCN(CC(C)C)CC3)NC2=C(NC(=O)/C(C)=C/C=C/[C@H](C)[C@H](O)[C@@H](C)[C@@H](O)[C@@H](C)[C@H](OC(=O)Nc2cnc3cc(C)nn3c2)[C@@H]1C)C4=O [UMN130] | 0.049 µM (≈ 0.048 µg/mL) | – | –
CO[C@H]1/C=C/O[C@@]2(C)Oc3c(C)c(O)c4c(c3C2=O)C2=NC3(CCN(CC(C)C)CC3)NC2=C(NC(=O)/C(C)=C/C=C/[C@H](C)[C@H](O)[C@@H](C)[C@@H](O)[C@@H](C)[C@H](OC(=O)Nc2cnc3ccccc3n2)[C@@H]1C)C4=O [UMN134] | 0.03 µM (≈ 0.0293 µg/mL) | – | –
CO[C@H]1/C=C/O[C@@]2(C)Oc3c(C)c(O)c4c(c3C2=O)C2=NC3(CCN(CC(C)C)CC3)NC2=C(NC(=O)/C(C)=C/C=C/[C@H](C)[C@H](O)[C@@H](C)[C@@H](O)[C@@H](C)[C@H](OC(=O)Nc2cn3ccccc3n2)[C@@H]1C)C4=O [UMN136] | 0.061 µM (≈ 0.0588 µg/mL) | – | –
CO[C@H]1/C=C/O[C@@]2(C)Oc3c(C)c(O)c4c(c3C2=O)C2=NC3(CCN(CC(C)C)CC3)NC2=C(NC(=O)/C(C)=C/C=C/[C@H](C)[C@H](O)[C@@H](C)[C@@H](O)[C@@H](C)[C@H](OC(=O)Nc2cc3ccccn3n2)[C@@H]1C)C4=O [UMN142] | 0.033 µM (≈ 0.0318 µg/mL) | – | –
CO[C@H]1/C=C/O[C@@]2(C)Oc3c(C)c(O)c4c(c3C2=O)C2=NC3(CCN(CC(C)C)CC3)NC2=C(NC(=O)/C(C)=C/C=C/[C@H](C)[C@H](O)[C@@H](C)[C@@H](O)[C@@H](C)[C@H](OC(=O)Nc2cn3ccsc3n2)[C@@H]1C)C4=O [UMN145] | 0.065 µM (≈ 0.0631 µg/mL) | – | –
CO[C@H]1/C=C/O[C@@]2(C)Oc3c(C)c(O)c4c(c3C2=O)C2=NC3(CCN(CC(C)C)CC3)NC2=C(NC(=O)/C(C)=C/C=C/[C@H](C)[C@H](O)[C@@H](C)[C@@H](O)[C@@H](C)[C@H](OC(=O)NC2CCN(C)CC2)[C@@H]1C)C4=O [UMN146] | – | 0.09 µM (≈ 0.0851 µg/mL) | 10.8%
CO[C@H]1/C=C/O[C@@]2(C)Oc3c(C)c(O)c4c(c3C2=O)C2=NC3(CCN(CC(C)C)CC3)NC2=C(NC(=O)/C(C)=C/C=C/[C@H](C)[C@H](O)[C@@H](C)[C@@H](O)[C@@H](C)[C@H](OC(=O)NC2CCN(C(C)C)CC2)[C@@H]1C)C4=O [UMN147] | – | 0.098 µM (≈ 0.0954 µg/mL) | 7.5%
CCN1CCC(NC(=O)O[C@H]2[C@H](C)[C@H](O)[C@H](C)[C@@H](O)[C@@H](C)/C=C/C=C(\C)C(=O)NC3=C4NC5(CCN(CC(C)C)CC5)N=C4c4c(c(O)c(C)c5c4C(=O)[C@@](C)(O/C=C/[C@H](OC)[C@H]2C)O5)C3=O)CC1 [UMN149] | – | 0.078 µM (≈ 0.0748 µg/mL) | 10.4%
CO[C@H]1/C=C/O[C@@]2(C)Oc3c(C)c(O)c4c(c3C2=O)C2=NC3(CCN(CC(C)C)CC3)NC2=C(NC(=O)/C(C)=C/C=C/[C@H](C)[C@H](O)[C@@H](C)[C@@H](O)[C@@H](C)[C@H](OC(=O)NC2CCN(CC(C)C)CC2)[C@@H]1C)C4=O [UMN150] | – | 0.054 µM (≈ 0.0533 µg/mL) | 3.6%
